Measurements reported in patent US20210278408A1, “METHODS OF TREATMENT OF CANCER WITH SUBSTITUTED PYRROLE AND PYRAZOLE COMPOUNDS AND DIAGNOSIS OF CANCERS SUSCEPTIBLE TO TREATMENT WITH SUBSTITUTED PYRROLE AND PYRAZOLE COMPOUNDS” (Bantam Pharmaceutical, LLC, priority 2018, published 2021).
“Also recorded” adds a separate entry of the source. Like-named read-outs stand apart in the source and are kept apart here.

Columns and labels:
SU-DHL-10 xenograft = test: Human xenograft model, diffuse large B-cell lymphoma line SU-DHL-10; type: in vivo, SCID beige mice; conditions: once daily oral gavage, p<0.01 for 10 and 30 mpk doses
Description: (§1) FIG. 10 is a set of graphs of in vivo treatment results for Athymic Nude mice engrafted with the DLBCL line SU-DHL-10 (left panel) or the CRC line HCT-116 (right panel). After 14 days, groups of mice (n=10 per group) were randomized by tumor volume and treated with Compound B19 (left panel) or Compound A197 (right panel). All animals dosed p.o. q.d. (orally once per day). Tumor burden was measured over 21 days. Compound B19 efficacy was monitored for 21 days following last dose to determine relapse. All data plotted as the mean±SEM, n=10 mice per group.
(§2) The positive results of the PK studies led to an evaluation of Compound A197 and Compound B19 in murine xenograft models of human tumors. Compound A197 was tested in a human tumor xenograft model using KRAS mutated colorectal cancer cell line HCT-116. Athymic nude mice (HSD:Athymic Nude-Foxn1 nu, Envigo) were inoculated subcutaneously with 5×10^6 HCT-116 cells in the right rear flank. The animals wethen staged and randomized by tumor size to achieve dose groups of 10 animals each with an average tumor volume of 150 mm^3. Tumor bearing mice were dosed once daily by oral gavage with a vehicle (5% NMP, 15% PEG400, 10% Solutol, and 70% D5W) or with A197 dissolved in vehicle to provide a dose concentration of 10 ml/kg. Compound B19 was tested in a human xenograft model using the human diffuse large B-cell lymphoma line SU-DHL-10 (ATCC). […]

SU-DHL-2 = test: Apoptosis, 72 hr: SU-DHL-2; type: cell-based, human
Gene Expression = test: Transcriptomic screen; type: cell-based
Description: (§3) Mechanism of Action Screens A series of broad high content imaging, transcriptomic, metabolomic, and CRISPR KO screens were performed to link Compound A197 activity to a probable method of action. The outcome of these screens included two notable observations.

HCT-116 = test: Cell proliferation, Cell-Titre Glo, 72 hours: HCT-116; type: cell-based; conditions: Homo sapiens, mean ± std. dev.
Description: (§4) NHLF, BJAB, SU-DHL-2, and HCT-116 cells were treated with Compound A197 for 4 hours prior to lysate harvest. Total cellular glutathione (GSH) levels were determined using a luminescent endpoint (GSH-Glo, Promega). Cell proliferation was determined using Cell-Titre Glo following 72 hours of compound treatment. All data shown is mean±SD of three biological replicates.

NHLF = test: Total cellular GSH levels (GSH-Glo): NHLF; type: cell-based, human; conditions: 4 hrs
Description: as §4

[1] = Pharmacokinetics in CD-1 mice, single oral dose compared to single intravenous dose; type: in vivo; conditions: for bioavailability: CD-1, mouse, po; for Cmax: blood plasma
Description: Pharmacokinetic Properties of Compound A197 Compound A197 levels in blood plasma of CD-1 mice given a single, oral dose of the agent and compared to a single intravenous dose, were measured to assess basic pharmacokinetic parameters. A197 was dissolved in 1% NMP, 0.3% Tween-80 in 0.5% methylcellulose at a dose volume of 10 ml/kg. Following compound dosing, blood was collected by tail vein bleed at 30 minutes, 1, 2, 4, 8, 12, 24 and 48 hrs following dosing.

HCT-116 xenograft = test: Human tumor xenograft model, colorectal cancer cell line HCT-116; type: in vivo
Description: as §1, §2

Metabolites = test: Metabolomic screen; type: cell-based; conditions: GSH, ATP/AMP ratio, isocitrate and aconitate
Description: as §3

Cell cycle = test: High content imaging screen: cell cycle; type: cell-based
Description: as §3

GPCR = test: In vitro assays: GPCR; type: biochemical; conditions: 69 family members
Cytoskeletal = test: High content imaging screen: cytoskeletal; type: cell-based; conditions: actin or microtubule localization or structure
Description: as §3

BJAB = test: Apoptosis, 72 hr: BJAB; type: cell-based, human
Oxidative Stress = test: High content imaging screen: oxidative stress (ROS); type: cell-based
Description: as §3

[2] = system: NHLF, BJAB, SU-DHL-2, and HCT-116 cells; test: Total cellular GSH levels (GSH-Glo), all lines; type: cell-based, human; conditions: tumor lines HCT-116, BJAB
Description: Total cellular GSH levels are reduced in tumor lines treated with Compound A197 The therapeutic compounds will cause a dose dependent reduction in total cellular glutathione in HCT-116, BJAB, SU-DHL-2, but not in NHLF cells. The maximum reduction of cellular GSH is in the range of 43-69%. The reduction In GSH levels appears independent of apoptosis.
as §4

[3] = mouse, plasma, 0.5 mg/kg, Intravenous, 0.5 mpk

For `COC(=O)c1c(-c2cccc(F)c2)c(C)nn1-c1nc(C2=CCC(C(F)(F)F)CC2)c(SC(C)C)s1` (single isomer, unassigned) [Compound B19, methyl 4-(3-fluorophenyl)-1-(5-(isopropylthio)-4-(4-(trifluoromethyl)cyclohex-1-en-1-yl)thiazol-2-yl)-3-methyl-1H-pyrazole-5-carboxylate], which “regression in DLBCL tumors” value (SU-DHL-10 xenograft) is on record?
Its value is “dose-dependent and durable regression in DLBCL tumors by day 21”.

For `Cc1nn(-c2nc(-c3ccc(C(F)(F)F)cc3)c(SC(C)C)s2)c(C(=O)O)c1-c1cccc(F)c1` [Compound A197, 4-(3-fluorophenyl)-1-(5-(isopropylthio)-4-(4-(trifluoromethyl)phenyl)thiazol-2-yl)-3-methyl-1H-pyrazole-5-carboxylic acid], which “Apoptosis, 72 hr” value (SU-DHL-2) is on record?
Its value is “Yes”.

What about the “Outcome: Gene Expression” value (Gene Expression) of the same molecule?
The value was “induced the ATF4 pathway; also recorded: Induction of ATF pathway; no effect on cell cycle gene”.

What about the IC50 (HCT-116) of the same molecule?
The IC50 was 0.53 ± 0.21 µM.

What about the “GSH % Max reduction” value (NHLF) of the same molecule?
The value was 0%.

What about the bioavailability ([1]; plasma, 2.5 mg/kg, Oral, 2.5 mpk, read-out: % F) of the same molecule?
Its bioavailability is 59.1%.

What about the bioavailability ([1]; plasma, 2.5 mg/kg, single oral dose compared to single intravenous dose, read-out: Bioavailability) of the same molecule?
The bioavailability was 59%.

And the t1/2 ([1]; Intravenous, 0.5 mpk)?
The t1/2 was 5.6 h.

And the Cmax ([1]; mouse, 0.5 mg/kg, Intravenous, 0.5 mpk)?
Its Cmax is 2880 ng/mL.

And the Cmax ([1]; mouse, 2.5 mg/kg, Oral, 2.5 mpk)?
The Cmax was 2610 ng/mL.

What about the AUC(0-inf) [1, 3] of the same molecule?
Its AUC(0-inf) is 14500 ng·h/mL.

What about the clearance [1, 3] of the same molecule?
Its clearance is 0.58 mL/min/kg.

What about the Vd ([1]; mouse, plasma, 0.5 mg/kg, Intravenous, 0.5 mpk, read-out: Vss) of the same molecule?
Its Vd is 0.285 L/kg.

And the AUC(0-inf) ([1]; mouse, plasma, 2.5 mg/kg, Oral, 2.5 mpk)?
Its AUC(0-inf) is 42900 ng·h/mL.

What about the Tmax ([1]; mouse, plasma, 2.5 mg/kg, single oral dose, read-out: Plasma drug tmax) of the same molecule?
Its Tmax is 6 h.

What about the half-life ([1]; mouse, plasma, iv, 0.5 mg/kg) of the same molecule?
The half-life was 5.6 h.

What about the “tumor growth in the solid tumor model” value (HCT-116 xenograft; HCT-116 xenograft, once daily oral gavage, 21 days, p<01 for 75 and 30 mpk doses) of the same molecule?
Its value is “significantly slower growth”.

What about the “tolerability, signs of toxicity” value (HCT-116 xenograft; markers of liver function, metabolism, and myelopoiesis, tumor bearing mice (data not shown)) of the same molecule?
Its value is “well-tolerated with no overt signs of toxicity”.

What about the “Outcome: Metabolites” value (Metabolites) of the same molecule?
Its value is “induced specific alterations in redox (decreased GSH), energy (decrease in ATP/AMP ratio), and TCA cycle intermediates (decreased isocitrate/aconitate) in tumor cells but not NHLF; also recorded: Decrease in total GSH levels; decrease in ATP/AMP”.

And the “Outcome: Cell cycle” value (Cell cycle)?
The value was “G1 arrest associated with TP53 independent CDKN1A”.

What about the “Outcome: GPCR” value (GPCR) of the same molecule?
The value was “No activity on 69 family members”.

What about the “Outcome: Cytoskeletal” value (Cytoskeletal) of the same molecule?
The value was “No obvious changes in actin or microtubule localization”.

What about the “Apoptosis, 72 hr” value (BJAB) of the same molecule?
The value was “Yes”.

And the “Outcome: Oxidative Stress” value (Oxidative Stress)?
Its value is “No production of ROS”.

What about the “maximum reduction of cellular GSH” value [2] of the same molecule?
Its value is 43-69%.
